In patent US20220024905A1, “CRYSTALLINE FORM OF PROPANAMIDE DERIVATIVE AND PREPARATION METHOD THEREFOR” (NHWA PHARMA. CORPORATION, priority 2018, published 2022):
Read-outs that look alike come from different tables or passages of the source.

Assays:
[1] = Crystalline stability: stability factors test at high humidity, high temperature and light (PXRD and HPLC content); assay type: physicochemical; settings: for Content (%): HPLC content (w/w, %); for Crystal form: PXRD; for content (all conditions) / morphology of crystal form: high humidity, high temperature and light, each for 10 days
Source text: The samples were taken at day 5 and day 10 respectively for PXRD (polycrystalline X ray diffraction) detection and HPLC content (w/w, %) determination, and the results were compared with that of day 0.

[2] = Pharmacokinetics of Crystal Form A and Crystal Form B capsules in beagle dogs; assay type: in vivo
Procedure: There were 12 beagle dogs for the experiment, half male and half female, weighing 11.0-14.1 kg, provided by the Teaching and Experimental Ground of Agricultural College of Shanghai Jiao Tong University. The animals were raised in single cage, and the feeding amount can be adjusted according to the weight or feed intake of the animals. The animals can drink water freely, with 12/12 h light/dark cycle adjustment, constant temperature of 23±1° C., humidity of 50-60%. On the day of administration, the experimental animals were fasted overnight before administration. […] The animals were weighed on the day of administration, and the dosage was determined according to their body weight. The above-mentioned grouped beagle dogs were administered according to the method in Table 5 below. [table] 1 mL of whole blood was collected from the cephalic vein at blood collection time points of 0.0830, 0.250, 0.500, 1.00, 2.00, 4.00, 8.00, 24.00 h after administration. […] The analytical method was performed by liquid chromatography tandem triple quadrupole mass spectrometry (LC MS/MS). […] The peak concentration (Cmax) and the peak time (Tmax) were obtained from the plasma concentration-time curve graph. The log-linear trapezoidal method (see: Gabrielsson J, Weiner D. Pharmacokinetic and pharmacodynamic data analysis: concepts and applications[M]. CRC Press, 2001, pages 141-146) was used to calculate the following parameters: elimination phase half-life (T1/2), mean retention time extrapolated from zero time point to infinity (MRT0-inf), mean retention time from zero time point to the last detectable concentration time point (MRT0-last), the area under the plasma concentration-time curve from the zero time point to the last detectable concentration time point (AUC0-last), and the area under the plasma concentration-time curve extrapolated from the zero time point to infinity (AUC0-inf). The experimental data was expressed as the mean (Mean)±standard deviation (S.D.). The excel software t-test was used for statistical comparison.

[3] = Mechanical stress of the crystal form (ball milling, PXRD); assay type: physicochemical; settings: for Crystal form after ball milling: ball mill 400 r/min, PXRD, duplicate mortars; for change of crystal form under ball milling pressure: ball milled for 30 min, 4 h and 6 h
Procedure: Samples were taken when the ball milled at 30 min, 4 h and 6 h respectively, and then for PXRD test. The change of crystal form was observed, and the experiment was carried out parallelly in duplicate.

[4] = Day 10 at high humidity (R.H. 92.5%)
[5] = Day 10 at high temperature (60° C.)
[6] = beagle dogs, PO 5 mg/kg, capsule, n = 6
[7] = beagle dogs, PO 5 mg/kg, capsule, x ± s, n = 6

## CN1CCc2ccc(OCCCN3CCC(c4noc5cc(F)ccc45)CC3)cc2C1=O [Crystal Form A, 7-(3-(4-(6-fluorobenzo[d]isoazol-3-yl)piperidin-1-yl)propoxy)-2-methyl-3,4-dihydroisoquinolin-1(2H)-one]
[1]; Day 0
  Content (%): 97.21%
  Crystal form: Crystal Form A
[1]; [4]
  Content (%): 97.18%
  Crystal form: Crystal Form A
[1]; [5]
  Content (%): 97.15%
  Crystal form: Crystal Form A
[1]; Day 10 at light (4500±500 lx)
  Content (%): 97.13%
  Crystal form: Crystal Form A
[1]
  content (all conditions): ≥ 97.0%
  morphology of crystal form: stable
[2]; both sexes, beagle, dog, plasma, po, 5 mg/kg, beagle dogs, PO 5 mg/kg, capsule, n = 6
  half-life: 2.9 h
[2]; both sexes, beagle, dog, plasma, po, 5 mg/kg, beagle dogs, PO 5 mg/kg, capsule, n = 6, read-out: Tmax
  Tmax: 2.6 h
[2]; both sexes, beagle, dog, plasma, po, 5 mg/kg, beagle dogs, PO 5 mg/kg, capsule, x ± s, n = 6
  AUC(0-t): 2840 ± 77.8 ng·h/mL
[2]; both sexes, beagle, dog, plasma, po, 5 mg/kg, beagle dogs, PO 5 mg/kg, capsule, x ± s, n = 6, read-out: AUC0-inf
  AUC0-inf: 2990 ± 82 ng·h/mL
[2]; both sexes, beagle, dog, plasma, po, 5 mg/kg, beagle dogs, PO 5 mg/kg, capsule, x ± s, n = 6, read-out: Cmax
  Cmax: 645 ± 37.2 ng/mL
[2]; both sexes, beagle, dog, plasma, po, 5 mg/kg, read-out: relative bioavailability (F)
  bioavailability: 137%
[3]; 30 min
  Crystal form after ball milling: Crystal Form A
[3]; 4 h
  Crystal form after ball milling: Crystal Form A
[3]; 6 h
  Crystal form after ball milling: Crystal Form A
[3]
  change of crystal form under ball milling pressure: its crystal form did not change

## CN1CCc2ccc(OCCCN3CCC(c4noc5cc(F)ccc45)CC3)cc2C1=O [Crystal Form B, 7-(3-(4-(6-fluorobenzo[d]isoazol-3-yl)piperidin-1-yl)propoxy)-2-methyl-3,4-dihydroisoquinolin-1(2H)-one]
[1]; Day 0
  Content (%): 96.70%
  Crystal form: Crystal Form B
[1]; [4]
  Content (%): 96.67%
  Crystal form: Crystal Form B +
[1]; [5]
  Content (%): 96.65%
  Crystal form: Crystal Form B +
[1]; Day 10 at light (4500±500 lx)
  Content (%): 96.69%
  Crystal form: Crystal Form B +
[1]
  content (all conditions): ≥ 96.0%
  morphology of crystal form: could not remain stable
[2]; [6]
  T1/2: 2.1 h
  Tmax: 1.7 h
[2]; [7]
  AUC0-inf: 2186 ± 82.1 ng·h/mL
  AUC0-last: 2039 ± 81.9 ng·h/mL
  Cmax: 426 ± 32.75 ng/mL
[3]; 30 min
  Crystal form after ball milling: Crystal Form B
[3]; 4 h
  Crystal form after ball milling: Crystal Form B +
[3]; 6 h
  Crystal form after ball milling: Crystal Form B +
[3]
  change of crystal form under ball milling pressure: its crystal form changed significantly
